The record followed here is patent publication US8895562B2, “Piperazin-1-yl-trifluoromethyl-substituted-pyridines as fast dissociating dopamine 2 receptor antagonists” (Janssen Pharmaceutica NV, priority 2008, dated 2014).

A word on the melting point: it is the temperature, or range, at which the solid turns liquid.

Structures can show the parent of a compound that is named as a salt. Where two headings read alike, the source gives them in different places.

One data set has as its target T1, human D2L receptor (Homo sapiens, UniProt P14416).
T1 construct: expressed in transfected cells
The data set can be described thus: Fast dissociation, indirect assay ([3H]spiperone binding after pre-incubation with compound). Particulars: compound at 4 times its IC50, 1 h pre-incubation at 25° C., then 5 min with 1 nM [3H]spiperone on filter. The method, then:
Compounds were first screened for their D2 affinity in a binding assay using [^3H]spiperone and human D2L receptor cell membranes.
Compounds at a concentration of 4 times their IC50 were first incubated for one hour with human D2L receptor cell membranes in a volume of 2 ml at 25° C., then filtered over glass-fibre filter under suction using a 40 well multividor. Immediately after, the vacuum was released. 0.4 ml of pre-warmed buffer (25° C.) containing 1 nM [^3H]spiperone was added on the filter for 5 minutes. The incubation was stopped by initiating the vacuum and immediate rinsing with 2×5 ml of ice-cold buffer. The filter-bound radioactivity was measured in a liquid scintillation spectrometer. The principle of the assay is based on the assumption that the faster a compound dissociates from the D2 receptor, the faster [^3H]spiperone binds to the D2 receptor.

For data set [1], the target named is T2, human Dopamine D2L receptor (Homo sapiens, UniProt P14416).
T2 construct: expressed in transfected cells; host or cells: CHO cells (membranes)
The data set can be described thus: In vitro binding affinity for human D2L receptor ([3H]spiperone). The note with it: membranes of human D2L receptor-transfected CHO cells, read-out: D2L binding pIC50 (converted). The text has this:
In order to find antipsychotic compounds active against positive and negative symptoms and cognitive impairment, and having an improved safety profile (low EPS incidence and no metabolic disorders), we have screened for compounds selectively interacting with the dopamine D2 receptor and dissociating fast from this receptor, and further having affinity for the dopamine D3 receptor as well as the serotonin 5-HT-6 receptor. Compounds were first screened for their D2 affinity in a binding assay using [^3H]spiperone and human D2L receptor cell membranes.
Frozen membranes of human Dopamine D2L receptor-transfected CHO cells were thawed, briefly homogenised using an Ultra-Turrax T25 homogeniser and diluted in Tris-HCl assay buffer containing NaCl, CaCl2, MgCl2, KCl (50, 120, 2, 1, and 5 mM respectively, adjusted to pH 7.7 with HCl) to an appropriate protein concentration optimised for specific and non-specific binding. Radioligand [^3H]Spiperone (NEN, specific activity ˜70 Ci/mmol) was diluted in assay buffer at a concentration of 2 nmol/L. Prepared radioligand (50 μl), along with 50 μl of either the 10% DMSO control, Butaclamol (10^−6 mol/l final concentration), or compound of interest, was then incubated (30 min, 37° C.) with 400 μl of the prepared membrane solution. Membrane-bound activity was filtered through a Packard Filtermate harvester onto GF/B Unifilterplates and washed with ice-cold Tris-HCl buffer (50 mM; pH 7.7; 6×0.5 ml). Filters were allowed to dry before adding scintillation fluid and counting in a Topcount scintillation counter. Percentage specific bound and competition binding curves were calculated using S-Plus software (Insightful).

Data set [2] concerns the target T3, human Dopamine D3 receptor (Homo sapiens, UniProt P35462).
T3 construct: expressed in transfected cells; host or cells: CHO cells (membranes)
Briefly: In vitro binding affinity for human D3 receptor ([125I]iodosulpride). How it is done: Frozen membranes of human Dopamine D3 receptor-transfected CHO cells were thawed, briefly homogenized using an Ultra-Turrax T25 homogeniser and diluted in 50 mM Tris-HCl assay buffer containing 120 mM NaCl, 2 mM CaCl2, 1 mM MgCl2, 5 mM KCl and 0.1% BSA (adjusted to pH 7.4 with HCl) to an appropriate protein concentration optimized for specific and non-specific binding. Radioligand [^125I]Iodosulpride (Amersham, specific activity ˜2000 Ci/mmol) was diluted in assay buffer at a concentration of 2 nM. Prepared radioligand (20 μl), along with 40 μl of either the 10% DMSO control, Risperidone (10^−6M final concentration), or compound of interest, was then incubated with 70 μl of the prepared membrane solution and 70 μl of WGA coated PVT beads (0.25 mg/well final concentration). After shaking for 24 hours at RT plates were counted in a Topcount™ scintillation counter. Percentage specific binding and competition binding curves were calculated using S-Plus software (Insightful).

Data set [3] has as its target T4, human Serotonin 5HT6 receptor (Homo sapiens, UniProt P50406).
T4 construct: expressed in transfected cells; host or cells: HEK cells (membranes)
Briefly: In vitro binding affinity for human 5HT6 receptor ([3H]LSD). How it is done:
Frozen membranes of human Serotonin 5HT6 receptor-transfected HEK cells were thawed, briefly homogenized using an Ultra-Turrax T25 homogeniser and diluted in 50 mM Tris-HCl assay buffer containing 10 mM MgCl2, 1 mM EDTA and 10 μM Pargyline (adjusted to pH 7.4 with HCl) to an appropriate protein concentration optimized for specific and non-specific binding. Radioligand [^3H]Lysergic acid diethylamide (Perkin Elmer, specific activity ˜80 Ci/mmol) was diluted in assay buffer at a concentration of 20 nM. Radioligand (20 μl), along with 40 μl of either the 10% DMSO control, Methiothepine (10^−5M final concentration), or compound of interest, was then incubated with 70 μl of the prepared membrane solution and 70 μl of WGA coated PVT beads (0.25 mg/well final concentration). After shaking for 24 hours at RT plates were counted in a Topcount™ scintillation counter. Percentage specific binding and competition binding curves were calculated using S-Plus software (Insightful).

The mark [4] stands for this setting: membranes of human D3 receptor-transfected CHO cells, [125I]iodosulpride, read-out: D3 binding pIC50 (converted).
The mark [5] stands for this setting: membranes of human 5HT6 receptor-transfected HEK cells, [3H]lysergic acid diethylamide, read-out: 5-HT6 binding pIC50 (converted).

T4 sequence (P50406 whole entry): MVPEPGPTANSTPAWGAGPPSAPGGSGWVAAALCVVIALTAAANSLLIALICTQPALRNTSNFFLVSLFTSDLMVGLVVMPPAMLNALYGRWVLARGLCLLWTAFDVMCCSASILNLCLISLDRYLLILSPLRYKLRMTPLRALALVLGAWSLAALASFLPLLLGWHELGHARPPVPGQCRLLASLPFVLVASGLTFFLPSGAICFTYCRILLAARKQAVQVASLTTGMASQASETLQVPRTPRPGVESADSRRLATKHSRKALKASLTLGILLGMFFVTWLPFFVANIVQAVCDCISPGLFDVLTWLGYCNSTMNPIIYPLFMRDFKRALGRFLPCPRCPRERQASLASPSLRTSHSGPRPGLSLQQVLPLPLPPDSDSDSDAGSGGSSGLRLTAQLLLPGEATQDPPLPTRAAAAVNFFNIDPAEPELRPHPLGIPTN
T1 sequence (P14416 whole entry): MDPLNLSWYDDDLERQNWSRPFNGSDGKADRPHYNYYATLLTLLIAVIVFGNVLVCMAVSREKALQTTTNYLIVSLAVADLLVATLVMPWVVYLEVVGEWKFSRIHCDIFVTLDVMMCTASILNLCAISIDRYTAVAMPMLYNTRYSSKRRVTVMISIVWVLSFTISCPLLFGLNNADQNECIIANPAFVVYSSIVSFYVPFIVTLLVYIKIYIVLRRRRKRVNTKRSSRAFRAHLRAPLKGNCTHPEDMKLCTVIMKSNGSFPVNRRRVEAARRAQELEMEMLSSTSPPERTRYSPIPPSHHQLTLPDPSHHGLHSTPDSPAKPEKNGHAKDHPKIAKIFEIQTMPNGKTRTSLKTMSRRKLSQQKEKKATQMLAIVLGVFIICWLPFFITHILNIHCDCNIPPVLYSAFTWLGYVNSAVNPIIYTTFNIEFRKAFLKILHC
T2 sequence (P14416 whole entry): as above
T3 sequence (P35462 whole entry): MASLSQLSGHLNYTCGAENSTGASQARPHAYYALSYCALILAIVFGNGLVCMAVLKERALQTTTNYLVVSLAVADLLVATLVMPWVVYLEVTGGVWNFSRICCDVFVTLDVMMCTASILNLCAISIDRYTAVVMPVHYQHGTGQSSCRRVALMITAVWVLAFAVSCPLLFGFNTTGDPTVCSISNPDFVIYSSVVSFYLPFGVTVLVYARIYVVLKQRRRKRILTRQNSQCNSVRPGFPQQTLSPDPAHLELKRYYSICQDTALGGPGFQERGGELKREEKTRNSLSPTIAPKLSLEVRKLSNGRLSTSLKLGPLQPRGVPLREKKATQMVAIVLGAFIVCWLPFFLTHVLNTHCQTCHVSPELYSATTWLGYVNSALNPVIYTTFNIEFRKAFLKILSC

As to `N#Cc1nc(N2CCNCC2)cc(-c2ccccc2)c1C(F)(F)F` (as salt: salt) [Example B2, 4-Phenyl-6-piperazin-1-yl-3-trifluoromethyl-pyridine-2-carbonitrile], the melting point was 255.3 °C.

In turn, `COc1nc(C(F)(F)F)c(-c2ccccc2)cc1N1CCNCC1` (as salt: salt) [Example B5, 1-(2-Methoxy-5-phenyl-6-trifluoromethyl-pyridin-3-yl)-piperazine] came in with a melting point of 184.8 °C.

On to `COc1nc(C(F)(F)F)c(-c2ccc(F)cc2)cc1N1CCN(C(=O)OC(C)(C)C)CC1` [Example A16, 4-[5-(4-Fluoro-phenyl)-2-methoxy-6-trifluoromethyl-pyridin-3-yl]-piperazine-1-carboxylic acid tert-butyl ester], for which the “D2 dissociation ([3H]spiperone binding as % of total binding capacity)” value at human D2L receptor worked out at 83%. The IC50 is 7.94 µM in data set [1], 2.09 µM in data set [2] (setting [4]) and 0.224 µM in data set [3] (setting [5]).

Take `Fc1ccc(-c2cc(N3CCNCC3)ncc2C(F)(F)F)cc1` [Example B1, 1-[4-(4-Fluoro-phenyl)-5-trifluoromethyl-pyridin-2-yl]-piperazine]: the melting point came to 80.6 °C. Moreover, in data set [1], the IC50 was 3.89 µM. Further, the IC50 in data set [3] (setting [5]) is 0.123 µM.

With `N#Cc1nc(N2CCNCC2)cc(-c2ccccc2)c1C(F)(F)F` [Example B2, 4-Phenyl-6-piperazin-1-yl-3-trifluoromethyl-pyridine-2-carbonitrile], the “D2 dissociation ([3H]spiperone binding as % of total binding capacity)” value at human D2L receptor is given as 60%. For the same molecule, the IC50 in data set [1] was 0.129 µM; in data set [2] (setting [4]), 0.0107 µM; in data set [3] (setting [5]) it was 0.00813 µM.

`COc1nc(N2CCNCC2)cc(-c2ccccc2)c1C(F)(F)F` [Example B3, 1-(6-Methoxy-4-phenyl-5-trifluoromethyl-pyridin-2-yl)-piperazine]: the “D2 dissociation ([3H]spiperone binding as % of total binding capacity)” value on human D2L receptor is given as 45%. The results for the IC50 in data set [1], in data set [2] and in data set [3] were 0.229 µM, 0.0468 µM and 0.0186 µM, respectively.

For `FC(F)(F)c1ncc(N2CCNCC2)cc1-c1ccccc1` [Example B4, 1-(5-Phenyl-6-trifluoromethyl-pyridin-3-yl)-piperazine], on human D2L receptor, the “D2 dissociation ([3H]spiperone binding as % of total binding capacity)” value worked out at 69%. The figures for the IC50 in data set [1], in data set [2] and in data set [3] (setting [5]) were 0.479 µM, 0.0339 µM and 0.138 µM, respectively.

On to `COc1nc(C(F)(F)F)c(-c2ccccc2)cc1N1CCNCC1` [Example B5, 1-(2-Methoxy-5-phenyl-6-trifluoromethyl-pyridin-3-yl)-piperazine], for which the “D2 dissociation ([3H]spiperone binding as % of total binding capacity)” value at human D2L receptor is 66%. The IC50 was 0.204 µM in data set [1] and 0.0933 µM in data set [3] (setting [5]).

Regarding `COc1nc(C(F)(F)F)c(-c2ccc(F)cc2)cc1N1CCNCC1` [Example B6, 1-[5-(4-Fluoro-phenyl)-2-methoxy-6-trifluoromethyl-pyridin-3-yl]-piperazine], the values for the IC50 in data set [1] and in data set [3] (setting [5]) were 0.468 µM and 0.129 µM, respectively.

With `N#Cc1nc(C(F)(F)F)c(-c2ccccc2)cc1N1CCNCC1` [Example B7, 5-Phenyl-3-piperazin-1-yl-6-trifluoromethyl-pyridine-2-carbonitrile], the IC50 is 3.39 µM in data set [1], 0.372 µM in data set [2] (setting [4]) and 0.309 µM in data set [3] (setting [5]).

In the case of `Cc1nc(C(F)(F)F)c(-c2ccccc2)cc1N1CCNCC1` [Example B8, 1-(2-Methyl-5-phenyl-6-trifluoromethyl-pyridin-3-yl)-piperazine], on human D2L receptor, the “D2 dissociation ([3H]spiperone binding as % of total binding capacity)” value amounted to 95%. For the same molecule, the IC50 in data set [1] is 4.79 µM; in data set [2] (setting [4]) it was 2.09 µM; in data set [3] (setting [5]), 0.17 µM.
